Experimental data: patent publication US8076486B2, “Heteroaryl-substituted arylaminopyridine derivatives as MEK inhibitors” (Merck Serono S.A., priority 2006, dated 2011)

Tests used:
[1] = tested on: human melanoma A375 cells; assay: Tumor Cell Proliferation Assay (ATP Lite), A375; assay type: cell-based; details: A-375, 96 h, 4 days, ATPlite
Procedure: (§1) Assay 2: Tumor Cell Proliferation Assays (ATP Lite)
(§2) Murine colon C26 (1500 cells/well), human melanoma A375 (2000 cells/well), or human pancreatic MiaPaCa-2 cells (2000 cells/well) were plated in white, 96 well plates (Corning) in growth media (DMEM with 10% fetal bovine serum, 2 mM glutamine for C26 and MiaPaCa-2, and RPMI with 10% fetal bovine serum, 2 mM glutamine for A375) and cultured overnight at 37° C. in a humidified, 5% CO2 incubator. Inhibitors were serially diluted in 100% DMSO and subsequently added to the cells, in growth media, to reach a final concentration of 0.25% DMSO. The cells were incubated for 4 days in the presence of the test compounds and the proliferation was quantitated using the ATPlite cell proliferation kit (Packard).

[2] = tested on: human pancreatic MiaPaCa-2 cells; assay: Tumor Cell Proliferation Assay (ATP Lite), MiaPaCa-2; assay type: cell-based; details: MIA PaCa-2, 96 h, 4 days, ATPlite, read-out: MiaPaCa2 cell proliferation IC50
Procedure: as §1, §2

human MEK1 = human MEK1 (Homo sapiens, UniProt Q02750, S218E/S222E); assay: MEK-1 Enzyme Assay (LANCE-HTRF); assay type: biochemical; details: MEK-1 EE, ERK-2K52A substrate, 9 uM ATP, 1.5 hrs
Chain of human MEK1 (Q02750 whole entry S218E/S222E): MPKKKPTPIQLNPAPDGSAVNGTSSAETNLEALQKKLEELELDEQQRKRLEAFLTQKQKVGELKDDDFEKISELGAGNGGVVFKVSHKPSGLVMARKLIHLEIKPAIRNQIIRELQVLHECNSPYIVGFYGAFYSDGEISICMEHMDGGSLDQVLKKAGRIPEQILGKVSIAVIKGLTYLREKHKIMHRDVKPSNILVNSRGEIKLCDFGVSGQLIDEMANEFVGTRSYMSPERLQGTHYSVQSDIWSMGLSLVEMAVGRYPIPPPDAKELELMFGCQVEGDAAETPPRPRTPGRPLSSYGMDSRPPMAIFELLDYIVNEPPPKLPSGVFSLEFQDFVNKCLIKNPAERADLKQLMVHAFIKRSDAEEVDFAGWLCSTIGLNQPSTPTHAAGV
Procedure: Assay 1: MEK-1 Enzyme Assay (LANCE-HTRF)
Inhibition of human MEK1 kinase activity was monitored with a homogenous, fluorescence-based assay. The assay uses time resolved fluorescence resonance energy transfer to probe for phosphorylation of ERK1 by MEK1. The detailed procedure is described in the following:
Constititutively active MEK-1 EE (150 ng/well) and ERK-2K52A (110 ng/well) were incubated in black, 384 well Optiplates (Perkin Elmer) for 1.5 hrs at room temperature, in the presence of increasing concentrations of inhibitors. The total reaction volume was 50 ul. The inhibitors were serial diluted in kinase buffer (9 uM ATP, 50 mM Tris-Hcl pH 8.0, 10 mM MgCl2, 1 mM DTT and 100 uM Na3VO4), to a final concentration of 1% DMSO. At the end of the incubation, the enzyme reaction was quenched by adding 50 ul of assay buffer containing 50 mM Tris-Hcl, 50 mM EDTA, 0.1% BSA and a mixture of 1.25 ug/mL europium labeled anti-phosphotyrosine mAb (Perkin Elmer) and 5 ug/mL of allophycocyanin labeled anti-GST antibody (CIS-US). Plates were agitated on a plate shaker for 30 minutes and the phosphorylation of the ERK-2K52A substrate was measured by homogeneous time resolved fluorescence (HTRF) at 340 nm excitation and […] emission filters on the VICTOR V fluorescence plate reader. Phosphorylation is expressed as a ratio of 665 nM signal×10,000/615 nM signal. To assess the inhibitory potential of the compounds, IC50-values were determined.

Murine colon C26 cells = assay: Tumor Cell Proliferation Assay (ATP Lite), C26; assay type: cell-based; details: Mus musculus, 96 h, 4 days, ATPlite
Procedure: as §1, §2

IC50 [1] | IC50 [2] | IC50 (human MEK1) | IC50 (Murine colon C26 cells) | SMILES
≤ 3000 nM | ≤ 3000 nM | ≤ 3000 nM | ≤ 3000 nM | COc1ccc(Nc2cnccc2-c2nnc(N)o2)c(F)c1 [Example 25, [4-(5-Amino-[1,3,4]oxadiazol-2-yl)-pyridin-3-yl]-(2-fluoro-4-methoxy-phenyl)-amine]
≤ 3000 nM | ≤ 3000 nM | ≤ 3000 nM | ≤ 3000 nM | CCOC(=O)Nc1nnc(-c2ccncc2Nc2ccc(I)cc2F)o1 [Example 26, {5-[3-(2-Fluoro-4-iodo-phenylamino)-pyridin-4-yl]-[1,3,4]oxadiazol-2-yl}-carbamic acid ethyl ester]
≤ 3000 nM | ≤ 3000 nM | ≤ 3000 nM | ≤ 3000 nM | Cc1cc(I)ccc1Nc1cnccc1-c1nnc(N)o1 [Example 29, [4-(5-Amino-[1,3,4]oxadiazol-2-yl)-pyridin-3-yl]-(4-iodo-2-methyl-phenyl)-amine]
≤ 3000 nM | ≤ 3000 nM | ≤ 3000 nM | ≤ 3000 nM | Nc1nnc(-c2ccncc2Nc2ccc(Br)cc2F)o1 [Example 34, [4-(5-Amino-[1,3,4]oxadiazol-2-yl)-pyridin-3-yl]-(4-bromo-2-fluoro-phenyl)-amine]
≤ 3000 nM | ≤ 3000 nM | ≤ 3000 nM | ≤ 3000 nM | Nc1nnc(-c2ccncc2Nc2ccc(Br)cc2Cl)o1 [Example 35, [4-(5-Amino-[1,3,4]oxadiazol-2-yl)-pyridin-3-yl]-(4-bromo-2-chloro-phenyl)-amine]
≤ 3000 nM | > 25000 nM | ≤ 3000 nM | > 25000 nM | CCOC(=O)c1nnc(-c2ccncc2Nc2ccc(I)cc2F)o1 [Example 39, 5-[3-(2-Fluoro-4-iodo-phenylamino)-pyridin-4-yl]-[1,3,4]oxadiazole-2-carboxylic acid ethyl ester]
≤ 3000 nM | ≤ 3000 nM | ≤ 3000 nM | ≤ 3000 nM | CN(C)c1nnc(-c2ccncc2Nc2ccc(I)cc2F)o1 [Example 42, [4-(5-Dimethylamino-[1,3,4]oxadiazol-2-yl)-pyridin-3-yl]-(2-fluoro-4-iodo-phenyl)-amine]

Second part, the molecule before the results:

SMILES | IC50 [1] | IC50 [2] | IC50 (human MEK1) | IC50 (Murine colon C26 cells)
Nc1nnc(-c2cc[n+]([O-])cc2Nc2ccc(I)cc2F)o1 [Example 27, [4-(5-Amino-[1,3,4]oxadiazol-2-yl)-1-oxy-pyridin-3-yl]-(2-fluoro-4-iodo-phenyl)-amine] | ≤ 3000 nM | ≤ 3000 nM | ≤ 3000 nM | ≤ 3000 nM
CCOC(=O)c1nnc(-c2ccncc2Nc2ccc(I)cc2F)[nH]1 [Example 31, 5-[3-(2-Fluoro-4-iodo-phenylamino)-pyridin-4-yl]-4H-[1,2,4]triazole-3-carboxylic acid ethyl ester] | ≤ 3000 nM | 3000 to 25000 nM | ≤ 3000 nM | 3000 to 25000 nM
OCc1nnc(-c2ccncc2Nc2ccc(I)cc2F)[nH]1 [Example 32, {5-[3-(2-Fluoro-4-iodo-phenylamino)-pyridin-4-yl]-4H-[1,2,4]triazol-3-yl}-methanol] | ≤ 3000 nM | ≤ 3000 nM | ≤ 3000 nM | ≤ 3000 nM
Cc1cc(I)ccc1Nc1cnccc1-c1nnc(N)[nH]1 [Example 33, [4-(5-Amino-4H-[1,2,4]triazol-3-yl)-pyridin-3-yl]-(4-iodo-2-methyl-phenyl)-amine] | ≤ 3000 nM | ≤ 3000 nM | ≤ 3000 nM | ≤ 3000 nM
Fc1cc(I)ccc1Nc1cnccc1-c1ncno1 [Example 37, (2-Fluoro-4-iodo-phenyl)-(4-[1,2,4]oxadiazol-5-yl-pyridin-3-yl)-amine] | ≤ 3000 nM | ≤ 3000 nM | ≤ 3000 nM | ≤ 3000 nM
OCc1noc(-c2ccncc2Nc2ccc(I)cc2F)n1 [Example 38, {5-[3-(2-Fluoro-4-iodo-phenylamino)-pyridin-4-yl]-[1,2,4]oxadiazol-3-yl}-methanol] | ≤ 3000 nM | 3000 to 25000 nM | ≤ 3000 nM | ≤ 3000 nM
Fc1cc(I)ccc1Nc1cnccc1-c1nnco1 [Example 40, (2-Fluoro-4-iodo-phenyl)-(4-[1,3,4]oxadiazol-2-yl-pyridin-3-yl)-amine] | ≤ 3000 nM | ≤ 3000 nM | ≤ 3000 nM | ≤ 3000 nM
Nc1nnc(-c2ccncc2Nc2ccc(I)cc2F)[nH]1 [Example 41, [4-(5-Amino-4H-[1,2,4]triazol-3-yl)-pyridin-3-yl]-(2-fluoro-4-iodo-phenyl)-amine] | ≤ 3000 nM | ≤ 3000 nM | ≤ 3000 nM | ≤ 3000 nM
COC(=O)CNc1nnc(-c2ccncc2Nc2ccc(I)cc2F)o1 [Example 43, {5-[3-(2-Fluoro-4-iodo-phenylamino)-pyridin-4-yl]-[1,3,4]oxadiazol-2-ylamino}-acetic acid methyl ester] | ≤ 3000 nM | 3000 to 25000 nM | ≤ 3000 nM | ≤ 3000 nM
OCCNc1nnc(-c2ccncc2Nc2ccc(I)cc2F)o1 [Example 44, 2-{5-[3-(2-Fluoro-4-iodo-phenylamino)-pyridin-4-yl]-[1,3,4]oxadiazol-2-ylamino}-ethanol] | ≤ 3000 nM | ≤ 3000 nM | ≤ 3000 nM | ≤ 3000 nM
O=C(O)CNc1nnc(-c2ccncc2Nc2ccc(I)cc2F)o1 [Example 45, {5-[3-(2-Fluoro-4-iodo-phenylamino)-pyridin-4-yl]-[1,3,4]oxadiazol-2-ylamino}-acetic acid] | ≤ 3000 nM | 3000 to 25000 nM | ≤ 3000 nM | 3000 to 25000 nM
NC(=O)CNc1nnc(-c2ccncc2Nc2ccc(I)cc2F)o1 [Example 46, 2-{5-[3-(2-Fluoro-4-iodo-phenylamino)-pyridin-4-yl]-[1,3,4]oxadiazol-2-ylamino}-acetamide] | ≤ 3000 nM | ≤ 3000 nM | ≤ 3000 nM | ≤ 3000 nM
CN(C)C(=O)CNc1nnc(-c2ccncc2Nc2ccc(I)cc2F)o1 [Example 47, 2-{5-[3-(2-Fluoro-4-iodo-phenylamino)-pyridin-4-yl]-[1,3,4]oxadiazol-2-ylamino}-N,N-dimethyl-acetamide] | ≤ 3000 nM | ≤ 3000 nM | ≤ 3000 nM | ≤ 3000 nM
Nc1nnc(-c2c(F)cncc2Nc2ccc(I)cc2F)o1 [Example 48, [4-(5-Amino-[1,3,4]oxadiazol-2-yl)-5-fluoro-pyridin-3-yl]-(2-fluoro-4-iodo-phenyl)-amine] | ≤ 3000 nM | ≤ 3000 nM | ≤ 3000 nM | ≤ 3000 nM
Fc1cc(I)ccc1Nc1cnccc1-c1nnc(NCC2CCCO2)o1 (centres unmarked) [Example 49, (2-Fluoro-4-iodo-phenyl)-(4-{5-[(tetrahydro-furan-2-ylmethyl)-amino]-[1,3,4]oxadiazol-2-yl}-pyridin-3-yl)-amine] | ≤ 3000 nM | ≤ 3000 nM | ≤ 3000 nM | ≤ 3000 nM
Fc1cc(I)ccc1Nc1cnccc1-c1nnc(NCC2CCCO2)s1 (centres unmarked) [Example 50, (2-Fluoro-4-iodo-phenyl)-(4-{5-[(tetrahydro-furan-2-ylmethyl)-amino]-[1,3,4]thiadiazol-2-yl}-pyridin-3-yl)-amine] | ≤ 3000 nM | ≤ 3000 nM | ≤ 3000 nM | ≤ 3000 nM
